Tests used:
venous thrombus = conditions: administered orally, doses of 6 mg/kg and above; cited from earlier work
[1] = solubility in injectable solvents; assay type: physicochemical; conditions: especially water and PEG 400
venous thrombosis = venous thrombosis test (venous stasis under hypercoagulation, WESSLER technique, activated factor X); assay type: in vivo, Wistar male rats; conditions: rat; for Activity p.o. T = 4 h (percentage inhibition of thrombus weight): thrombosis induced 4 h after administration; for Activity p.o. T = 8 h (percentage inhibition of thrombus weight): thrombosis induced 8 h after administration; for inhibition in vivo at 5 mg/kg: iv, i.v. in PEG 400, 5 mg/kg, thrombosis induced 2 h after administration, read-out: Activity i.v. T = 2 h (percentage inhibition relative to thrombus weight with vehicle)
Experimental: The test products are administered either orally (tubage) dissolved or suspended in PEG 400, or by intravenous injection dissolved in PEG 400. The concentration of the compounds is calculated so that the amount of solution absorbed is 2 ml/kg by oral administration and 1 ml/kg by intravenous injection. The compounds are generally administered intravenously at a dose of 5 mg/kg. If the test is performed after oral administration, the amount administered is calculated so as to correspond to about 2.10^−5 mol/kg. Thrombosis is induced at a time T (2 h, 4 h or 8 hours) after the administration of the product, and the thrombus formed is removed and weighed. To induce this thrombosis, a venous stasis is created under hypercoagulation according to the technique described by WESSLER (J. Applied Physiol. 1959, pp. 943-946), the hypercoagulating agent used being a solution of activated factor X (Xa) having a concentration of 7.5 nKat/kg, supplied by Biogenic. The results obtained, expressed as the percentage inhibition calculated relative to the weight of a thrombus obtained in the absence of active principle in the vehicle, are collated in Table I below. The activity of the test compounds was checked at different doses after they had been administered either orally (p.o.) or intravenously (i.v.). The thrombosis was induced 4 hours or 8 hours after oral administration of the compound and 2 hours after intravenous administration.

SMILES	inhibition in vivo at 5 mg/kg (venous thrombosis) [%]	also measured
Cc1cc(=O)oc2cc(O[C@@H]3SC[C@@H](O)[C@H](O)[C@H]3O)ccc12 [D, 4-methyl-2-oxo-2H-1-benzopyran-7-yl 5-thio-β-D-xylopyranoside, reference compound]	–	reduction of the formation of a venous thrombus (venous thrombus): more than 80%; solubility in injectable solvents [1]: insoluble; Activity p.o. T = 4 h (percentage inhibition of thrombus weight) (venous thrombosis; p.o. in PEG 400, 6 mg/kg): 84%; Activity p.o. T = 8 h (percentage inhibition of thrombus weight) (venous thrombosis; p.o. in PEG 400, 6 mg/kg): 15%
COC(=O)O[C@@H]1[C@@H](OC(=O)OC)[C@H](OC(=O)OC)CS[C@H]1Oc1ccc2c(C)cc(=O)oc2c1 [Ex. 1, 4-Methyl-2-oxo-2H-1-benzopyran-7-yl 2,3,4-tri-O-methoxycarbonyl-5-thio-β-D-xylopyranoside]	84	Activity p.o. T = 4 h (percentage inhibition of thrombus weight) (venous thrombosis; p.o. in PEG 400, 9 mg/kg): 87%; Activity p.o. T = 8 h (percentage inhibition of thrombus weight) (venous thrombosis; p.o. in PEG 400, 9 mg/kg): 66%
CCOC(=O)O[C@@H]1[C@@H](OC(=O)OCC)[C@H](OC(=O)OCC)CS[C@H]1Oc1ccc2c(C)cc(=O)oc2c1 [Ex. 2, 4-Methyl-2-oxo-2H-1-benzopyran-7-yl 2,3,4-tri-O-ethoxycarbonyl-5-thio-β-D-xylopyranoside]	73	–
CCCOC(=O)O[C@@H]1[C@@H](OC(=O)OCCC)[C@H](OC(=O)OCCC)CS[C@H]1Oc1ccc2c(C)cc(=O)oc2c1 [Ex. 3, 4-Methyl-2-oxo-2H-1-benzopyran-7-yl 2,3,4-tri-O-propoxycarbonyl-5-thio-β-D-xylopyranoside]	71	–
CCCCOC(=O)O[C@@H]1[C@@H](OC(=O)OCCCC)[C@H](OC(=O)OCCCC)CS[C@H]1Oc1ccc2c(C)cc(=O)oc2c1 [Ex. 4, 4-Methyl-2-oxo-2H-1-benzopyran-7-yl 2,3,4-tri-O-butoxycarbonyl-5-thio-β-D-xylopyranoside]	60	–
Cc1cc(=O)oc2cc(O[C@@H]3SC[C@@H](OC(=O)OCC(C)C)[C@H](OC(=O)OCC(C)C)[C@H]3OC(=O)OCC(C)C)ccc12 [Ex. 5, 4-Methyl-2-oxo-2H-1-benzopyran-7-yl 2,3,4-tri-O-(2-methylpropoxycarbonyl)-5-thio-β-D-xylopyranoside]	65	–
COCCOC(=O)O[C@@H]1[C@@H](OC(=O)OCCOC)[C@H](OC(=O)OCCOC)CS[C@H]1Oc1ccc2c(C)cc(=O)oc2c1 [Ex. 6, 4-Methyl-2-oxo-2H-1-benzopyran-7-yl 2,3,4-tri-O-(2-methoxyethoxycarbonyl)-5-thio-β-D-xylopyranoside]	52	–
C=CCC(=O)O[C@@H]1[C@@H](OC(=O)CC=C)[C@H](OC(=O)CC=C)CS[C@H]1Oc1ccc2c(C)cc(=O)oc2c1 [Ex. 7, 4-Methyl-2-oxo-2H-1-benzopyran-7-yl 2,3,4-tri-O-(2-propenylcarbonyl)-5-thio-β-D-xylopyranoside]	66	–
C=COC(=O)O[C@@H]1[C@@H](OC(=O)OC=C)[C@H](OC(=O)OC=C)CS[C@H]1Oc1ccc2c(C)cc(=O)oc2c1 [Ex. 8, 4-Methyl-2-oxo-2H-1-benzopyran-7-yl 2,3,4-tri-O-(ethenyloxycarbonyl)-5-thio-β-D-xylopyranoside]	65	–
Cc1cc(=O)oc2cc(O[C@@H]3SC[C@@H](OC(=O)OCCO)[C@H](OC(=O)OCCO)[C@H]3OC(=O)OCCO)ccc12 [Ex. 9, 4-Methyl-2-oxo-2H-1-benzopyran-7-yl 2,3,4-tri-O-(2-hydroxyethoxycarbonyl)-5-thio-β-D-xylopyranoside]	27	Activity p.o. T = 4 h (percentage inhibition of thrombus weight) (venous thrombosis; p.o. in PEG 400, 11 mg/kg): 93%; Activity p.o. T = 8 h (percentage inhibition of thrombus weight) (venous thrombosis; p.o. in PEG 400, 11 mg/kg): 29%

Source: patent US6602899B1, “β-D-5 thioxylose derivatives, preparation method and therapeutic use” (Fournier Industrie & Sante, priority 1999, dated 2003)
